Read-outs that look alike come from different tables or passages of the source.
Columns and labels:
[1] = target: T1, human calpain I (Homo sapiens, UniProt P07384); assay: Effects on human calpain I (acellular, Suc-Leu-Tyr-AMC fluorescence); type: biochemical; details: enzyme purified from human erythrocytes; 1 h at 25°C; read-out: Inhibition human calpain I, acellular [IC50 (nM)]
T1 construct: enzyme purified from human erythrocytes; purchased Calbiochem 208713; host or cells: human erythrocytes (native tissue source)
T1 sequence (P07384 1-714): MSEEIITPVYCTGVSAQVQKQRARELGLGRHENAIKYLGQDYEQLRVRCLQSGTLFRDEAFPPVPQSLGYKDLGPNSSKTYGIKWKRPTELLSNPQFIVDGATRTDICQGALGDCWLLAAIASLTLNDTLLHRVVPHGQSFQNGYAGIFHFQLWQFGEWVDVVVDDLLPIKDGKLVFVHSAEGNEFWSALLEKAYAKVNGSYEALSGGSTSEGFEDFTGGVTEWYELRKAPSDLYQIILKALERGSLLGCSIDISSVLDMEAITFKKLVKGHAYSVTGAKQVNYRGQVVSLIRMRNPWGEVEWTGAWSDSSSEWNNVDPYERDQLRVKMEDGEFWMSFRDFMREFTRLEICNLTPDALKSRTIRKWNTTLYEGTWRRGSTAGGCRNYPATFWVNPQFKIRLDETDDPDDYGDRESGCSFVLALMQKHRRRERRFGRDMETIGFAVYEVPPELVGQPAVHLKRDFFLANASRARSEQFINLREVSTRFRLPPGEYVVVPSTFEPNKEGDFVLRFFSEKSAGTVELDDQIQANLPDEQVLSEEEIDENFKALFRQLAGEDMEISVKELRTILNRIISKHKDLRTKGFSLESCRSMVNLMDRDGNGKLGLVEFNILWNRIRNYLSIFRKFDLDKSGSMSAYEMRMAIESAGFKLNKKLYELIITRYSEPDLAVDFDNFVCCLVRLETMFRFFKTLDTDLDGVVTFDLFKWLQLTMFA
T1 sequence (P04632 1-268 partner): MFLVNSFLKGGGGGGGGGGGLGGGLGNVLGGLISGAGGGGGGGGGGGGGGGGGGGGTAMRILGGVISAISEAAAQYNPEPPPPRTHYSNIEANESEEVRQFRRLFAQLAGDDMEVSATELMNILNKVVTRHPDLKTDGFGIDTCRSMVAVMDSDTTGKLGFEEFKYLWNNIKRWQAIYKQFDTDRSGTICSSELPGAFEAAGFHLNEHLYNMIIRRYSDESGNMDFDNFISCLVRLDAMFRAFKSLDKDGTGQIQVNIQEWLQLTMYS
Method: The test consists of measuring the activity of the enzyme (enzyme purified from human erythrocytes) which is incubated in a buffer in the presence of a peptide substrate coupled with a fluorochrome (amino-methylcourmarin, AMC) and calcium. The enzyme activated by the calcium, proteolyses the substrate and releases the AMC fragment. The AMC released fluoresces at 460 nm under excitation at 380 nm. The activity of the enzyme is therefore proportional to the quantity of fluorescence i.e. of free AMC fragment. The fluorescence (380/460 nm) is measured using a multi-well fluorimeter (Victor 2, Wallac).
Assay is carried out in 96-well microplates with transparent bottoms and black walls in which 10 μl per well of substance to be tested in DMSO 10%, 45 μl of reaction mixture containing the human calpain I at 2.2 U/ml (Calbiochem, ref: 208713), the Suc Leu Tyr-AMC substrate (Bachem, ref: I-1355) at 1.1 mM in a buffer (Tris-HCl 110 mM; NaCl 110 mM; EDTA 2.2 mM; EGTA 2.2 mM; mercaptoethanol 1.1 mM) are distributed. The reaction is initiated by adding 45 μl of CaCl2 22mM. To determine the background noise, control wells without calcium are added to the plate (10 μL DMSO 10%+45 μL of buffer with the enzyme and the susbtrate +45 μL H2O). In order to determine the total activity of the enzyme control wells containing no product are added to the plate (10 μL DMSO 10%+45 μL of buffer with the enzyme and the substrate +45 μL of CaCl2 22 mM ). Each concentration of the products (0.1 nM to 10 μM) is tested in duplicate. The plates are shaken and incubation takes place for one hour at 25° C. in darkness. The fluorescence is read at 380/460 nm using the Victor.

[2] = test system: rat glial cells C6; assay: Protection from necrosis induced by maitotoxin, C6 (wst-1 viability); type: cell-based
Method: (§1) Human neuroblastomas SHSY5Y and rat glial cells C6 are seeded at 25 000 cells per well in 96-well plates in DMEM 10% FBS for 24 hours. The L6 rat myoblasts are seeded at 1000 cells per well in DMEM 10% FBS on 96-well microplates coated beforehand with gelatin 0.5% PBS. After culture for 3 days the medium is removed and replaced with a differentiation medium (DMEM+10 μg/ml of insulin+100 μg/ml of transferrin). 50 μl of product A plus 50 μl of solvent or 50 μl of product B are placed in the wells. After incubation for 1 hour at 37° C. under an atmosphere of 5% CO2, 10 μl of maitotoxin is added in order to obtain a final concentration of 0.1 nM to 1 nM (according to the cell type). After incubation for 3 hours at 37° C. under an atmosphere of 5% CO2, the cell viability is determined by adding 10 μl of tetrazolium salts (wst-1, Roche, ref: 1644807). The tetrazolium salts are cleaved into formazan molecules by mitochondrial dehydrogenases. The quantity of formazan formed is directly correlated to the number of metabolically active cells in the culture. Measurement of the absorbance of the formazan is carried out using a multiwell photometer at a wavelength of 420 nm against a reference wavelength of 620 nm.
(§2) The theoretical effect was obtained by multiplying the percentage of dead cells in the presence of product A by the percentage of dead cells in the presence of product B (Table 3). The percentage protection against cell death induced by MTX being the percentage of cells kept alive in the presence of the product or products.
In the light of the previous results, the combination of Example 1 with product A and product B at a rate of 100 μM of each of the products is carried out on human neuroblastomas (SHSY5Y; (Table 5A) and on glial cells with 25 μM of product A and 50 μM of product B (C6; Table 5B) on a larger number of cases.

[3] = test system: L6 Myoblasts differentiated to myotubes (rat skeletal muscle cells); assay: Protection from necrosis induced by maitotoxin, L6 myoblasts differentiated to myotubes; type: cell-based; details: single product at 100 μM
Method: as §1
The theoretical effect was obtained by multiplying the percentage of dead cells in the presence of product A by the percentage of dead cells in the presence of product B (Table 3). […]

[4] = test system: lipidic peroxidation of rat cerebral cortex homogenate; assay: In vitro lipidic peroxidation (Fenton reaction, MDA) in rat cerebral cortex membranes; type: biochemical; details: iron/ascorbate, read-out: Inhibition of lipidic peroxidation [IC50 (μM)]
Method: The test consists of inducing lipidic peroxidation by Fenton reactions in the presence of iron and ascorbate. The degree of lipidic peroxidation is determined by the concentration of malonaldehyde (MDA). The MDA produced by the lipidic peroxidation of unsaturated fatty acids is a good indicator of lipidic peroxidation (Esterbauer et al, 1990; Meth. Enzymol. 186: 407421). For this colorimetric test, the condensation of a molecule of MDA with two molecules of chromogenic reagent R (N-methyl-2-phenylindole) produces a stable chromophore the maximum absorbance wavelength of which is equal to […].
The membranes are prepared from the cortexes of male Sprague Dawley rats weighing 200 to 250 g. The animals are sacrificed by decapitation and the brains are immediately removed and rinsed in cold Tris HCl 20 mM pH 7.4. The cortexes, after dissection and removal of the white matter, are then ground with the Thomas potter, in Tris HCl buffer 20 mM pH 7.4 at 4° C. The homogenate obtained is centrifuged at low speed in order to eliminate the large debris (515 g for 15 minutes at 4° C.). The supernatant is then distributed into polycarbonate centrifugation tubes and centrifuged at 51500 g for 25 min at 4° C. The membrane pellets are kept at −80° C.
On the day of the experiment, the frozen membranes are resuspended at a concentration of 0.5 equivalent grams of cortex per 5 ml of Tris HCl buffer 20 mM pH 7.4 and homogeneized using a combitips. In 96-well “deep-well” 1 ml polypropylene plates with a conical base, 5 μl per well of the product to be tested or of solvent is mixed with 40 μl of rat cerebral cortex homogenate by centrifugation (800 rpm). The plates are covered with a self-adhesive aluminium sheet and incubated at 37° C. for 15 minutes under agitation. […]
The membranes and the supernatants are separated by filtration under vacuum on a 96-well plate with a multiscreen filtering base NA (Millipore, ref: MANANLY 50). The absorbance of the supernatants recovered in the 96-well plates is read using a photometer.

[5] = test system: 8-isoPG1F2α level in rat glial cells C6; assay: In situ isoprostane level (8-isoPG1F2α) in C6 cells treated with maitotoxin; type: cell-based; details: 3 h, read-out: Inhibition of the isoprostane count in situ (C6) [IC50 (μM)]
Method: 8-isoPG1F2α is part of a family of compounds the first synthesis stage of which (peroxidation of arachidonic acid) is carried out in a non-enzymatic manner in the presence of free radicals (Morrow and coll, 1990). Measurement of the 8-iso PGF2α level is considered as a reliable marker of the oxidation stress.
The rat glial cells C6 were seeded at 25 000 cells per well in 96-well plates in DMEM 10% FBS. The next day, 100 μl of product A was placed in the wells. After incubation for 1 hour at 37° C. under an atmosphere of 5% CO2, 10 μl containing maitotoxin is added in order to obtain a final concentration in the well of 1 nM. After incubation for 3 hours, the supernatants are removed and frozen at −20° C. The 8-isoPG1F2α level is measured using a specific EIA dosage kit (Cayman chemical, ref: 516351).

[6] = test system: human neuroblastomas SHSY5Y; assay: Protection from necrosis induced by maitotoxin, SHSY5Y (wst-1 viability); type: cell-based; details: for Protection from necrosis induced by MTX: SHSY5Y, n=2, 0.1 nM maitotoxin; for Protection from necrosis induced by MTX on SHSY5Y: n = 8, single product at 100 μM
Method: as §1, §2
In a first series of experiments, the concentration of product A in Example 1 is fixed (100 μM), product B is added at concentrations varying from zero to 100 μM (Table 4A). In a second series of experiments, product B of Example 1 is fixed at 100 μM, product A is added at concentrations varying from zero to 100 μM (Table 4B).

[7] = single product at 50 μM, n = 3 for Example 2, else n = 1
[8] = single product at 100 μM, n = 1

| SMILES | IC50 [1] | Protection from necrosis induced by MTX on C6 [2, 7] | Protection from necrosis induced by MTX on C6 [2, 8] | Protection from necrosis induced by MTX on L6 Myoblasts differentiated to myotubes [3] | IC50 [4] | IC50 ([5]; n = 3, maitotoxin 1 nM) | Protection from necrosis induced by MTX ([6]; single compound at 12.5 μM) | Protection from necrosis induced by MTX ([6]; single compound at 25 μM) | Protection from necrosis induced by MTX ([6]; single compound at 50 μM) | Protection from necrosis induced by MTX ([6]; single compound at 100 μM) | Protection from necrosis induced by MTX on SHSY5Y [6] | Protection from necrosis induced by MTX on SHSY5Y ([6]; listed as 3,5-di-tert-butyl-4-hydroxybenzoic acid) | Protection from necrosis induced by MTX on C6 ([2]; single product at 25 μM) | Protection from necrosis induced by MTX on C6 ([2]; single product at 25 μM, listed as 3-5-di-tert-butyl-4-hydroxybenzoic acid) | Protection from necrosis induced by MTX on C6 ([2]; single product at 25 μM, listed as EXAMPLE 4 A) | IC50 ([5]; Rattus norvegicus, Glial cell) | Protection from necrosis induced by MTX on C6 ([2]; single product at 50 μM, n = 3 for Example 2, else n = 1, listed as 2-methoxy-10H-phenothiazine) |
| --- | --- | --- | --- | --- | --- | --- | --- | --- | --- | --- | --- | --- | --- | --- | --- | --- | --- |
| CCCC[C@@H](C=O)NC(=O)[C@H](CC(C)C)NC(=O)OCc1ccccc1 [EXAMPLE 3 B] | 2.8 nM | 13.03% | 0.84% | 5.09% |  |  |  |  |  |  |  |  |  |  |  |  |  |
| CC(C)(C)c1cc(C(=O)O)cc(C(C)(C)C)c1O [EXAMPLE 1 A, 3-5-di-tert-butyl-4-hydroxybenzoic acid] |  | 12.51% | 30.84% |  | 3.7 µM | 101 µM | 5.18 ± 1.81% | 7.45 ± 1.65% | 8.87 ± 0.34% | 8.68 ± 0.3% | 19.48 ± 5.20% | less than 20% | 21.23% | ~20% | 16.17% |  |  |
| COc1ccc2c(c1)Nc1ccccc1S2 [EXAMPLE 2 A, 2-methoxy-10H-phenothiazine] |  | 6.56 ± 1.6% | 10.45% | 10.94% | 0.19 µM |  |  |  |  |  |  |  |  |  |  | 0.4 µM | inactive |

— patent US20070265208A1, “Association of calpain inhibitors and reactive oxygen species trapping agents” (priority 2000, published 2007)
